Values joined by “and” are separate entries in the source; they are usually repeats but may differ in a detail not shown here. Equal entries are not always repeated. Structures can show the parent of a compound that is named as a salt.
Tests used:
Plasmodium falciparum [1] = assay: NOVARTIS: Inhibition of Plasmodium falciparum W2 (drug-resistant) proliferation in erythrocyte-based infection assay; format: functional, organism-based; conditions: read-out: EC50
Plasmodium falciparum [2] = assay: NOVARTIS: Inhibition of Plasmodium falciparum 3D7 (drug-susceptible) proliferation in erythrocyte-based infection assay; format: functional, organism-based
Huh-7 = assay: NOVARTIS: Cytotoxicity against human hepatocellular carcinoma cell line (Huh7); format: toxicity, cell-based

SMILES | EC50 (Plasmodium falciparum [1]) | EC50 (Plasmodium falciparum [2]) | CC50 (Huh-7; huh-7, read-out: CC50) | EC50 (Plasmodium falciparum [2]; Plasmodium falciparum, 3D7) | EC50 (Plasmodium falciparum [1]; Plasmodium falciparum, W2) | CC50 (Huh-7; huh-7)
CCN1C(=Cc2sc3ccccc3[n+]2C)C=Cc2cccc(C)c21 [listing 1 of 2 here] | 800 nM | 493 nM | > 10 µM |  |  | 
CCN1C(=Cc2sc3ccc(OC)cc3[n+]2CC)C=Cc2ccccc21 [listing 1 of 2 here] | 208 nM | 20.4 nM | 24.8 µM |  |  | 
CC[n+]1c(C=C2Sc3ccccc3N2CCO)sc2ccccc21 [listing 1 of 2 here] | 511 nM | 336 nM | > 100 µM |  |  | 
COc1cc(/C=C2/SC(=Nc3ccccc3)NC2=O)ccc1OCc1ccccc1F | > 12500 nM | > 1100 nM and 3670 nM | > 100 µM |  |  | 
CCN1/C(=C/c2cccc[n+]2C)Sc2ccc(OC)cc21 | > 867 nM and 304 nM |  | > 100 µM | 207 nM |  | 
COc1ccc(/C=C2\SC(=O)NC2=Nc2ccccc2)cc1 | 1300 nM and 378 nM |  | > 100 µM | 819 nM |  | 
CCN1C(=Cc2sc3cc(NC(C)=O)ccc3[n+]2CC)C=Cc2cc(C)ccc21 [listing 1 of 2 here] | 581 nM | 161 nM | > 90.6 µM |  |  | 
Cc1[nH]c2ccccc2c1/C=C/c1cc[n+](C)cc1 | 215 nM | 175 nM | > 100 µM |  |  | 
O=C(NCCc1ccccc1)C1CCC(Cn2c(=S)[nH]c3ccccc3c2=O)CC1 (stereo unspecified) |  |  |  | > 1650 nM | 1750 nM | No fit
CN(C)c1ccc(C=CC=Cc2cc[n+](C)cc2)cc1 |  |  | > 10 µM | 640 nM | 506 nM | 
COc1ccc2c(ccc(/C=C3\C=CC=CN3C)[n+]2C)c1 | 524 nM | 581 nM | > 100 µM | 316 nM | 886 nM | 
C[n+]1c(C=CNc2ccccc2)n(-c2ccccc2)c2ccc(Cl)cc21 [listing 1 of 2 here] | 318 nM | 534 nM | 23.8 µM |  |  | 
C/C(C=NNC(=O)c1ccco1)=C\c1ccccc1 | 650 nM | > 1760 nM and 486 nM | > 100 µM |  | > 1100 nM | 
C=CC[n+]1c(C=C2C=CC=CN2C)sc2ccccc21 [listing 1 of 2 here] | > 1010 nM |  | > 10 µM | 491 nM |  | 
CCN1C(=Cc2sc3ccccc3[n+]2C)C=Cc2cccc(C)c21 [listing 2 of 2 here] | 228 nM | 65.4 nM | 27.4 µM |  |  | 
C[n+]1ccc(C=Cc2ccc(O)cc2)cc1 | 593 nM | 1430 nM | > 100 µM |  |  | 
CC[n+]1c(/C=C/N2CCCc3ccccc32)ccc2ccccc21 [listing 1 of 2 here] |  |  | 2.34 µM | 75.7 nM | 145 nM | 
CC[n+]1c(/C=C/c2ccc(N(C)C)cc2)sc2cc(NC(C)=O)ccc21 | 686 nM and 341 nM | 1500 nM | > 100 µM | 953 nM |  | 
COc1ccc2c(c1)N(C)/C(=C/c1cccc[n+]1C)S2 | > 787 nM and 302 nM | 941 nM and 219 nM | > 100 µM |  |  | 
COC(=O)C1=CN(Cc2ccc(OC)cc2)C=C(C(=O)OC)C1c1cccc([N+](=O)[O-])c1 |  |  |  | 2120 nM | > 1250 nM | No fit
CCCC[n+]1c(C=C2C=Cc3ccccc3N2CC)sc2ccccc21 | 228 nM | 81.5 nM | 6.12 µM |  |  | 
CC[n+]1c(/C=C2\C=Cc3cc(C)ccc3N2C)ccc2cc(C)ccc21 | 961 nM | > 1150 nM and 225 nM | > 10 µM and 32.1 µM |  | > 1250 nM | 
CCOc1ccc2nccc([C@@H](O)[C@@H]3C[C@@H]4CCN3C[C@@H]4CC)c2c1 [ETHYLHYDROCUPREINE] | 25.7 nM |  | 53.8 µM | 31.8 nM |  | 

SMILES | EC50 (Plasmodium falciparum [1]) | EC50 (Plasmodium falciparum [2]) | CC50 (Huh-7; huh-7, read-out: CC50) | EC50 (Plasmodium falciparum [2]; Plasmodium falciparum, 3D7) | EC50 (Plasmodium falciparum [1]; Plasmodium falciparum, W2) | CC50 (Huh-7; huh-7)
C[n+]1c2ccccc2nc2ccc(NCCc3cnc[nH]3)cc21 |  |  |  | 139 nM | 405 nM | No fit
C[n+]1ccccc1C=Cc1cc(Br)ccc1O [listing 1 of 2 here] |  |  | > 10 µM | 302 nM | 441 nM | 
CCOc1ccc2nccc([C@@H](O)[C@@H]3C[C@@H]4CCN3C[C@@H]4CC)c2c1 [ETHYLHYDROCUPREINE HYDROCHLORIDE] | < 3.48 nM | 39 nM | > 10 µM |  |  | 
C=CC[n+]1c(C=C2C=CC=CN2C)sc2ccccc21 [listing 2 of 2 here] | 403 nM | 281 nM | > 100 µM |  |  | 
CC[n+]1c(/C=C2\Sc3cc(C)ccc3N2CCO)ccc2ccccc21 | 861 nM and 228 nM | 1200 nM and 195 nM | > 10 µM and 21.3 µM |  |  | 
CC[n+]1c(/C=C/N2CCCc3ccccc32)ccc2ccccc21 [listing 2 of 2 here] | 246 nM | 103 nM | > 9.97 µM |  |  | 
COc1cc(/C=C2/SC(=Nc3ccccc3)NC2=O)ccc1OCc1ccccc1Cl | 522 nM | 692 nM | > 100 µM | 957 nM | 494 nM | 
CCN1/C(=C/C=C/c2sc3ccccc3[n+]2CC)Sc2ccccc21 | 164 nM | 258 nM | 9.03 µM |  |  | 
CCN1/C(=C/c2cccc[n+]2C)C=Cc2ccccc21 | 572 nM | 401 nM | > 64.5 µM | 667 nM | 522 nM | 
Cc1cc(=O)n(-c2nc(-c3ccccc3O)nc3ccccc23)[nH]1 |  |  |  | 824 nM | 752 nM | No fit
CCN1/C(=C/C=C/c2sc3ccccc3[n+]2CC)Sc2ccccc21 [ALAZANINE] | 1060 nM |  | 27 µM | 200 nM |  | 
O=C1NC(=Nc2ccccc2)/C(=C/c2ccc(O)cc2)S1 | 2160 nM | 810 nM | > 10 µM and 21 µM | > 1250 nM | > 1090 nM | 
CC1=C(C=CC(C)C=NNC(=O)c2ccncc2)C(C)(C)CCC1 (stereo unspecified) | 1110 nM | 1420 nM | > 100 µM | 896 nM | 863 nM | 
CN(C)c1ccc(C=CC=Cc2cc[n+](C)cc2)cc1.[O-][Cl+3]([O-])([O-])[O-] |  |  | > 100 µM | 770 nM | 532 nM | 
CC[n+]1c(C=C2Sc3ccccc3N2CCO)sc2ccccc21 [listing 2 of 2 here] | > 1480 nM | 1410 nM | > 10 µM |  |  | 
CCN1/C(=C/c2[se]c3ccccc3[n+]2CC)C=Cc2cc(OC)ccc21 | 266 nM | 171 nM | 4.95 µM |  |  | 
CN(C)c1ccc(C=CC=Cc2cccc[n+]2C)cc1.[O-][Cl+3]([O-])([O-])[O-] |  |  | > 100 µM | 283 nM | 178 nM | 
Cc1ccc(N=C2NC(=O)/C(=C\c3ccc(N(C)C)cc3)S2)cc1 | 488 nM and 1250 nM | 615 nM and 1470 nM | > 100 µM |  |  | 
CCN1/C(=C/c2cccc[n+]2C)Sc2ccc(C)cc21 | 545 nM and 2280 nM | 487 nM and 1350 nM | > 100 µM |  |  | 
Cc1nn(CC(O)Cn2c3ccc(Cl)cc3c3cc(Cl)ccc32)c(C)c1Br (stereo unspecified) |  |  |  | 602 nM | 190 nM | No fit
CCCCCC[n+]1ccccc1C=Cc1ccc(N(C)C)cc1 | 211 nM | 96.1 nM | 2.41 µM |  |  | 
CCN1/C(=C/c2cccc[n+]2C)C=Cc2cc(C)ccc21 | 959 nM | 803 nM | > 100 µM | 425 nM | 596 nM | 
CCN1/C(=C/c2cccc[n+]2C)C=Cc2ccc(C)cc21 | 448 nM | 225 nM and 489 nM | > 49.9 µM |  | 328 nM | 

SMILES | EC50 (Plasmodium falciparum [1]) | EC50 (Plasmodium falciparum [2]) | CC50 (Huh-7; huh-7, read-out: CC50) | EC50 (Plasmodium falciparum [2]; Plasmodium falciparum, 3D7) | EC50 (Plasmodium falciparum [1]; Plasmodium falciparum, W2) | CC50 (Huh-7; huh-7)
Cc1occc1C(=O)NN=C/C(Br)=C/c1ccccc1 | 502 nM | 1370 nM and 206 nM | > 10 µM and 47.1 µM |  | 593 nM | 
CC[n+]1c(C=CN(C)c2ccccc2)oc(-c2ccccc2)c1-c1ccccc1 | 410 nM and 105 nM | 617 nM and 193 nM | > 10 µM and 2.74 µM |  |  | 
CCOC(=O)c1ccc(-n2c(C)cc(/C=C3\SC(=Nc4ccc(Cl)cc4)NC3=O)c2C)cc1 | 1420 nM | 844 nM and 3370 nM | > 100 µM |  | 1700 nM | 
OCC[n+]1ccc(/C=C/c2c[nH]c3ccccc23)cc1 | 396 nM | 343 nM | > 100 µM | 390 nM | 554 nM | 
C=C(c1ccccc1)[n+]1ccc(/C=C/c2ccccc2O)cc1 | 289 nM | 355 nM and 739 nM | > 10 µM and 92.7 µM |  | 277 nM | 
CCN1C(=Cc2sc3ccc(OC)cc3[n+]2CC)C=Cc2ccccc21 [listing 2 of 2 here] |  | 417 nM | 9.87 µM |  | 249 nM | 
CCN1/C(=C/c2ccc3ccccc3[n+]2CC)C=Cc2ccccc21 | 544 nM and 189 nM | 618 nM and 65.8 nM | > 10 µM and 36.8 µM |  |  | 
CCN1C(=Cc2sc3cc(NC(C)=O)ccc3[n+]2CC)C=Cc2cc(C)ccc21 [listing 2 of 2 here] |  | 1570 nM | > 10 µM |  | 568 nM | 
C=C[C@H]1C[N@]2CC[C@H]1C[C@@H]2[C@@H](OC(=O)Cc1cccs1)c1ccnc2ccccc12 | 78.7 nM | 9.8 nM and 62.2 nM | > 10 µM and 95.1 µM |  | 46.6 nM | 
C[n+]1ccccc1C=Cc1cc(Br)ccc1O [listing 2 of 2 here] | 308 nM | 466 nM | > 100 µM |  |  | 
Cc1ccc(/C=C2/SC(=Nc3ccccc3)NC2=O)c(C)c1 | 351 nM | 468 nM and 232 nM | > 100 µM |  | 455 nM | 
CCn1c(/C=C/N(C)c2ccccc2)[n+](CC)c2cc(Cl)ccc21 | 513 nM and 87.8 nM | 391 nM and 91.3 nM | 22.6 µM and > 10 µM |  |  | 
C[n+]1c(C=CNc2ccccc2)n(-c2ccccc2)c2ccc(Cl)cc21 [listing 2 of 2 here] | < 14.5 nM | 182 nM | > 10 µM |  |  | 
CC[n+]1c(C=CN(C)C)sc2ccccc21 | 1360 nM |  | 27.1 µM | 459 nM |  | 
CCN1C(=Cc2sc3ccccc3[n+]2C)C=Cc2ccc(C)cc21 | 291 nM | 122 nM | 11.4 µM |  |  | 
C[n+]1ccc(/C=C/c2c[nH]c3ccccc23)cc1 | 95.9 nM | 136 nM and 472 nM | > 100 µM |  | 63.2 nM | 
CCN1C(=Cc2sc3ccc(Cl)cc3[n+]2CC)C=Cc2cc(OC)ccc21 | 91.8 nM | 16.7 nM | 11.9 µM |  |  | 
CCN1/C(=C/C=C/C2=[N+](C)c3ccc(C)cc3C2(C)C)C=Cc2ccccc21 | 860 nM and 184 nM | 861 nM and 158 nM | > 10 µM and 4.99 µM |  |  | 
CCn1c(C=CN(C(C)=O)c2ccccc2)[n+](CC)c2cc(Cl)ccc21 |  |  | > 10 µM | > 1650 nM | > 1060 nM | 
CCN1/C(=C/c2sc3ccccc3[n+]2CC)Sc2ccccc21 | 10.8 nM | 187 nM | 11.1 µM |  |  | 
Cc1cccc(N=C2NC(=O)/C(=C\c3ccc(N(C)C)cc3)S2)c1 | 1640 nM and 508 nM | 1180 nM | > 100 µM | 784 nM |  | 

From ChEMBL document CHEMBL1156829 (Proc Natl Acad Sci U S A, 2008)
